According to patent publication US20250375450A1, “SMARCA2/4 INHIBITION AS A STRATEGY TO TREAT TUMORS THAT HARBOR ABERRANT BAF ASSEMBLIES” (BOARD OF REGENTS, THE UNIVERSITY OF TEXAS SYSTEM, priority 2022, published 2025):
Entries after “also recorded” stand apart in the source; their conditions may differ.

Columns and labels:
Type in all cases: cell-based
[1] = test system: alveolar Rhabdomyosarcoma cell lines; test: Growth of Rhabdomyosarcoma cell lines, live cell imaging confluency
Method: Briefly, human SMARCA2 was purified, and a high-throughput screen (HTS) of 40,000 compounds was conducted. […] In brief, cells were grown in RPMI media supplemented with 10% Fetal bovine serum (FBS), 1× penicillin, and streptomycin antibiotics. Cells were placed in an incubator with 5% C02 and 50% humidity. When cells reached 90% confluency, cells were harvested, washed twice in 1×PBS, counted using trypan blue exclusion method. Then cells were seeded in 96-well plates (duplicates, n=2) at the density of 20,000 cells per well. Allowed them to attach to the bottom of the well for 1 to 2 hrs and treated with different concentration of AT-301 compound starting at highest concentration of 10 micromolar to serial dilution of the compound to the lowest concentration of 0.039 micromolar. Cells treated with only DMSO were also included as negative control. Cells were monitored for 72 hrs. by live cell imaging method (Incucyte S3) taking images every two hours. The confluency was determined and plotted against time (hours) by using Prism software.
Assays were performed as detailed above for FIG. 4A-E.

[2] = test system: D556; test: Cell proliferation assay and IC50 measurement (PrestoBlue); settings: PrestoBlue cell viability
Method: (§1) FIG. 10A-C show representative data illustrating that AT-301 kills Ewing's, RMS, GBM, AML, and other cancer cells. Cell lines were treated with serial dilutions (2×) of AT-301, and IC50 values of each cell line were determined using PrestoBlue dye for cell viability following manufacturer's protocol (Invitrogen, A13261). See also Table 3.
(§2) DAOY, D556 cells: EMEM, 10% FBS, Penicillin (100 units/mL) and streptomycin (100 μg/mL) in the presence of 5% CO2.
(§3) Proliferation of adherent cells was determined on the IncuCyte live-cell imaging system (Essen BioScience). Cells were seeded on clear bottom 96 well plates at a seeding density of 2000 cells/well. Cells were allowed to attach overnight after which the medium was replaced with fresh medium containing serial dilutions (2×) of the compound or DMSO control. Percent confluence was calculated by the IncuCyte software from four different images per well from at least three replicate wells. For non-adherent cells, the 96-well plates were coated with poly-L-lysine before seeding to facilitate cell adhesion. At the end of the assay, dose-dependent cell viability was determined by staining the cells with PrestoBlue (Invitrogen, A13261) as per manufacturer's instructions and IC50 was calculated (FIG. 10).

[3] = test system: DAOY; test: as above; settings: Homo sapiens, PrestoBlue cell viability
Method: as §1, §2, §3

[4] = test system: BT40; test: as above; settings: PrestoBlue cell viability
Method: as §1
(§4) Jurkat, Molt-4, RH4, RH30, BT40, GBM2, ES3, ES6, ES7, HC827, H1975, H2030 cells: RPMI 1640, 10% FBS, Penicillin (100 units/mL) and streptomycin (100 μg/mL) in the presence of 5% CO2.
as §3

[5] = test system: GBM2; test: as above; settings: PrestoBlue cell viability
Method: as §1, §4, §3

[6] = test system: HCC827; test: as above; settings: Homo sapiens, PrestoBlue cell viability
Method: as §1, §4, §3

[7] = test system: ovarian cancer cells; test: Growth/killing of ovarian cancer cells; settings: dose-dependent
Method: as §3
Referring to FIG. 10A, AT-301 kills a variety of cancer cells (brain tumors, rhabdomyosarcoma, nonsmall cell lung cancer, leukemia, and Ewing's Sarcoma. We also tested whether AT-301 can kill cells representing gynecological cancers (ovarian and endometrial cancer). As shown in FIG. 10B-C, AT-301 kills a variety of ovarian and endometrial cancer cells.

With `Clc1ccc(CNc2nc(NC3CCCC3)nc3ccccc23)cc1Cl` [AT-301, N^2-cyclopentyl-N^4-(3,4-dichlorobenzyl)quinazoline-2,4-diamine] the “Growth of Rhabdomyosarcoma cell lines” value ([1]; 2 other lines) was “moderately attenuated the growth”, the “Growth of alveolar Rhabdomyosarcoma cell lines” value ([1]; 4 alveolar Rhabdomyosarcoma cell lines) was “attenuate the growth; also recorded: strongly attenuated the growth” and the IC50 [2] was 3.02 µM. The IC50 [3] was 4.19 µM, the IC50 [4] was 3.49 µM and the IC50 [5] was 3.54 µM. The IC50 [6] was 5.21 µM and the “Growth/killing of ovarian cancer cells” value [7] was “kills; also recorded: inhibits the growth”.
